The test system of data set [1] is murine DNA 5-C-MTase. Kind of data set: Methylation assay: methyl transfer from [methyl-3H]AdoMet to ODNs by DNA methyltransferase from Friend erythroleukemia cell nuclei. The format is biochemical. As to conditions: for ACTIVITY (cpm), DNA methylase (FL): Table 5, S + M1 and its 5-fluorocytosine containing double stranded analogs; for RELATIVE ACTIVITY (rate of methylation relative to an equal amount of AS): Table 6, single-stranded ODN; for rate of methylation relative to unmethylated A (times): ODNs with 5MeC in position 7 designed to form or not to form the stem-loop. As to the method:
The phosphoramidite of 5-fluorodeoxycytidine (5FdC) and unmodified 5-methyl deoxycytosine (5MdC) and 5FC-containing ODNs were synthesized and purified as described in Marasco, C. J. et al., J. Org. […] 5MdC phosphoramidite is commercially available. ss ODNs were heated to 90° C. for 10 min and quickly chilled on ice immediately prior to assay. […] For ds ODNs, an equimolar mixture of complementary ODNs was heated to 90° C. for 10 min and slowly cooled to room temperature.
Preparation of Murine DNA 5-C-MTase. The DNA 5-C-MTase used in these studies was the 100,000×g supernatant of a 0.3M NaCl extract of Friend erythroleukemia cell nuclei.
Methylation Assay. Reaction mixtures (50 μl ) in 0.1M imidazole, pH 7.4/20 mM EDTA/0.5 mM dithiothreitol contained 0.5 μg of each ODN indicated, ≈0.6 units of DNA 5-C-MTase (1 unit transfers 1 pmol to A (AS)·A'Mp (M1) per min; see Table 7), and 2.8 μCi (1 Ci=37 GBq) of [methyl-^3 H]AdoMet (AdoMet=S-adenosylmethionine) (8 μM). […] For accuracy, methylation rates <5 pmol/30 min were measured in quadrupled reaction mixtures (200 μl ). After incubation for 30 min at 37° C., ODNs were processed for quantitation of radiolabel as described (20) with 25 μg of salmon sperm DNA added as carrier prior to perchloric acid precipitation.
All assays were performed in duplicate.

For data set [2], the target named is DNA 5-C-methyltransferase (murine, Friend erythroleukemia cells) (Mus musculus, UniProt P13864 P13864:1-1620). Kind of data set: methylation rate. As to conditions: protein: extract; tags: 0.3 M NaCl nuclear extract, 100,000 x g supernatant; single approx. 190 kDa species forming covalent complexes.
[3] abbreviates: Table 10, ss ODNs with 5 mC and 5 FC substitutions.

[5mC] = 5-methylcytosine

The text below walks through data of patent US5652105A, “Substrate for detection of mammalian 5-C-DNA methyltransferase” (Health Research, Inc., priority 1995, dated 1997).

Chain of DNA 5-C-methyltransferase (murine, Friend erythroleukemia cells) (P13864 whole entry, one chain of several): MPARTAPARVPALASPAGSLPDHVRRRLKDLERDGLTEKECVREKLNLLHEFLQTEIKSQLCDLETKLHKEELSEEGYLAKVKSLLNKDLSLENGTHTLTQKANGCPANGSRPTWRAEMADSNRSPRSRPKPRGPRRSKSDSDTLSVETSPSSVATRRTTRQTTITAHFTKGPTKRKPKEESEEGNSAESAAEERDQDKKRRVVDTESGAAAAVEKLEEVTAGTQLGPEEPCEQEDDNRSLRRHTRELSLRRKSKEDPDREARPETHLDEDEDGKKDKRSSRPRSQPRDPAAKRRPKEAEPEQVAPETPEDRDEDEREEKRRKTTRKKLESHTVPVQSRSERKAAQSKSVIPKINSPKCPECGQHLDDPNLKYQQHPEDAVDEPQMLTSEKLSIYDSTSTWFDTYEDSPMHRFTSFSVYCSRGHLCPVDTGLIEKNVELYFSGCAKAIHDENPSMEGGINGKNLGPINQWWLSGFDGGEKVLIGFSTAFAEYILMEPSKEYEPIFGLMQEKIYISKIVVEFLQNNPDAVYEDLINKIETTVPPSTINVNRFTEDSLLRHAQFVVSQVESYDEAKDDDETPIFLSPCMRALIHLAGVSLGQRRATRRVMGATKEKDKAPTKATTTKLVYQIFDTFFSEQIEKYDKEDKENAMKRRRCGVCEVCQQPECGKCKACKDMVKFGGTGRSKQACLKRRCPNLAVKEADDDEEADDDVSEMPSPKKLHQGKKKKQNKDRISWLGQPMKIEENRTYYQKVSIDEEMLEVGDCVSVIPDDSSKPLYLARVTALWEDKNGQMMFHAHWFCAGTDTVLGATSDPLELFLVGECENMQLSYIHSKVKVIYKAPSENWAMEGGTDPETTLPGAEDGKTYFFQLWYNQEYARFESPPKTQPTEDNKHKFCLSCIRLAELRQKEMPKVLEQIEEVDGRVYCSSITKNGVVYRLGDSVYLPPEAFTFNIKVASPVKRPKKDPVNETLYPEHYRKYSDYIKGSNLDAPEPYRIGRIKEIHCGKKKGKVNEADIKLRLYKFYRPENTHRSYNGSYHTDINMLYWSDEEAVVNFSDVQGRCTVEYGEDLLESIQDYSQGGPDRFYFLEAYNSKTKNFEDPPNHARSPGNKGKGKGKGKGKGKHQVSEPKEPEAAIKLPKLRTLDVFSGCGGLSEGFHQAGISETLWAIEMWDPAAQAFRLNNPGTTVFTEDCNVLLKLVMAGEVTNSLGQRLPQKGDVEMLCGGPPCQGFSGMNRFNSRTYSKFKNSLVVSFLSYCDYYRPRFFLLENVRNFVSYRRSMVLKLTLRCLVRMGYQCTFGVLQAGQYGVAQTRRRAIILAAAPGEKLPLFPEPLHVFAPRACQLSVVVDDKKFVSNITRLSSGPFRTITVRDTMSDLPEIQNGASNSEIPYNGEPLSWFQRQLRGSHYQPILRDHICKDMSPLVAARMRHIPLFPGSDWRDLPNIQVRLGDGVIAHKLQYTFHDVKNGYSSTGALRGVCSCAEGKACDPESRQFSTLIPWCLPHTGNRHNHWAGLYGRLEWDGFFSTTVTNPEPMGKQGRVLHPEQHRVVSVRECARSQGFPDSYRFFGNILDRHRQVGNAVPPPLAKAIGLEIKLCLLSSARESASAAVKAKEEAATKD

Take “5' GATCGCGGATCCGGAATGNGCAAT 3' (5-fluorocytosine, further chemistry not given here) [Seq. ID #14]”: the “ACTIVITY (cpm), DNA methylase (FL)” value in data set [1] is recorded as 36,000 cpm.

Take “5' GATCGCGGATCNGGAATGCGCAAT 3' (5-fluorocytosine, further chemistry not given here) [Seq. ID #13]”: the “ACTIVITY (cpm), DNA methylase (FL)” value in data set [1] is recorded as 28,000 cpm.

“5' ATTGCGNATTCCGGATCCGCGATC 3' (5-methylcytosine at 7, further chemistry not given here) [ASM7, ODN A (AS) with 5-methylcytosine (N) at position 7]”: in data set [1], the “RELATIVE ACTIVITY (rate of methylation relative to an equal amount of AS)” value stood at 170. In data set [1] (Table 7, phosphorothioate end capped oligomers, standard cell free enzyme assay), the Rate of methylation is 72,010 cpm/μg oligo/30 min. Also, the “RATE (rate of methylation relative to A)” value in data set [1] (Table 9, ss ODNs with 5MeC substituted for C at the sites given) turned out to be 140; in data set [1] (setting [3]) it was 130. The “stimulation of the rate of methylation by phosphorothioate capping” value in data set [1] (activity of D compared with C) is on record as “more than 50%”.

On to “5' ATTGCGNATTCCGGATCRGCGATC 3' (5-methylcytosine at 7, 5-fluorocytosine at 18, further chemistry not given here) [ASM7 F18, AS with 5-methylcytosine (N) at 7 and 5-fluorocytosine (R) at 18]”, for which, in data set [1], the “inhibition of DNA methyltransferase (in words)” value was “potent” and the “RELATIVE ACTIVITY (rate of methylation relative to an equal amount of AS)” value stood at 3. In data set [1] (setting [3]), the “RATE (rate of methylation relative to A)” value is reported as 3.2.

Regarding “structure 6: ODN with 5MeC in position 7 that forms a stem-loop with the same relationship between C7 and C18 as A (FIG. 7, 8) (DNA ATGACGCACCTCGTTGACGCGCTA; DNA, [5mC] at 7, backbone not given here)”, in data set [1], the “rate of methylation relative to unmethylated A (times)” value is above 300.

Take “structure 8: ODN with 5MeC in position 7 that forms a homodimer but no stem-loop analogous to structures 5 and 6 (FIG. 9) (DNA ATTGCGCTACTCGGATCCGGCCAT; DNA, [5mC] at 7, backbone not given here)”: the “rate of methylation relative to unmethylated A (times)” value in data set [1] is reported as “same rate as unmethylated A”.

For the molecule “5' GATCGCGGATNCGGAATGCGCAAT 3' (5-fluorocytosine, further chemistry not given here) [Seq. ID #12]”, the “ACTIVITY (cpm), DNA methylase (FL)” value in data set [1] is given as 140,000 cpm.

In the case of ATTGCGCATTCCGGATCCGCGATC (ssDNA, 5mC at 17) [ASM17], in data set [2], the binding signal is 3.5 relative to A.

Turning to ATTGCGCATTCCGGATCCGCGATC (ssDNA, 5mC at 18) [ASM18], the binding signal in data set [2] was 12 relative to A.

With GATCGCGGATCCGGAATGCGCAAT (ssDNA, 5mC at 6) [A' 5mC6], in data set [2], the binding signal was 42 relative to A.

Consider GATCGCGGATCCGGAATGCGCAAT (ssDNA, 5mC at 4) [A' 5mC4], for which, in data set [2], the binding signal was 0.4 relative to A.

On to GATCGCGGATCCGGAATGCGCAAT (ssDNA, 5mC at 11,21) [M4 (SMx)], for which the binding signal in data set [2] was 75 relative to A.

Consider GATCGCGGATCCGGAATGCGCAAT (ssDNA, 5mC at 21) [A' 5mC21], for which the binding signal in data set [2] is 37 relative to A.

For GATCGCGGATCCGGAATGCGCAAT (ssDNA, 5mC at 19) [A' 5mC19], the binding signal in data set [2] was 1 relative to A.

Take GATCGCGGATCCGGAATGCGCAAT (ssDNA, 5mC at 11) [A' 5mC11]: in data set [2], the binding signal was 1.7 relative to A.

For the molecule GATCGCGGATCCGGAATGCGCAAT (ssDNA, 5mC at 12) [A' 5mC12], in data set [2], the binding signal was 67 relative to A.

Consider ATTGCGCATTCCGGATCCGCGATC (ssDNA, 5mC at 20) [ASM20], for which the binding signal in data set [2] is 2.5 relative to A.
